Test results: PubChem BioAssay (NCI)
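48-hour exposure; five concentrations; linearly interpolated endpoints. GI50: concentration for 50% inhibition of growth. TGI: concentration producing complete growth inhibition.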

Assays:
Experiment in all cases: NCI-60 cell line screen, 48 h
786-0 renal = test system: 786-0 renal
A498 renal = test system: A498 renal
A549 NSCLC = test system: A549 NSCLC
ACHN renal = test system: ACHN renal
BT-549 breast = test system: BT-549 breast
CAKI-1 renal = test system: CAKI-1 renal
CCRF-CEM leukemia = test system: CCRF-CEM leukemia
COLO 205 colon = test system: COLO 205 colon
DU-145 prostate = test system: DU-145 prostate
EKVX NSCLC = test system: EKVX NSCLC
HCC-2998 colon = test system: HCC-2998 colon
HCT-116 colon = test system: HCT-116 colon
HCT-15 colon = test system: HCT-15 colon
HL-60(TB) leukemia = test system: HL-60(TB) leukemia
HOP-62 NSCLC = test system: HOP-62 NSCLC
HOP-92 NSCLC = test system: HOP-92 NSCLC
HS 578T breast = test system: HS 578T breast
HT29 colon = test system: HT29 colon
IGROV1 ovarian = test system: IGROV1 ovarian
K-562 leukemia = test system: K-562 leukemia
KM12 colon = test system: KM12 colon
LOX IMVI melanoma = test system: LOX IMVI melanoma
M14 melanoma = test system: M14 melanoma
MALME-3M melanoma = test system: MALME-3M melanoma
MCF7 breast = test system: MCF7 breast
MDA-MB-231 breast = test system: MDA-MB-231 breast
MDA-MB-435 = test system: MDA-MB-435
NCI-H226 lung = test system: NCI-H226 lung
NCI-H23 lung = test system: NCI-H23 lung
NCI-H460 lung = test system: NCI-H460 lung
NCI-H522 lung = test system: NCI-H522 lung
NCI/ADR-RES ovarian = test system: NCI/ADR-RES ovarian
OVCAR-3 ovarian = test system: OVCAR-3 ovarian
OVCAR-4 ovarian = test system: OVCAR-4 ovarian
OVCAR-5 ovarian = test system: OVCAR-5 ovarian
OVCAR-8 ovarian = test system: OVCAR-8 ovarian
PC-3 prostate = test system: PC-3 prostate
RPMI-8226 leukemia = test system: RPMI-8226 leukemia
RXF 393 renal = test system: RXF 393 renal
SF-268 CNS = test system: SF-268 CNS
SF-295 CNS = test system: SF-295 CNS
SF-539 CNS = test system: SF-539 CNS
SK-MEL-2 melanoma = test system: SK-MEL-2 melanoma
SK-MEL-28 melanoma = test system: SK-MEL-28 melanoma
SK-MEL-5 melanoma = test system: SK-MEL-5 melanoma
SK-OV-3 ovarian = test system: SK-OV-3 ovarian
SN12C renal = test system: SN12C renal
SNB-19 CNS = test system: SNB-19 CNS
SNB-75 CNS = test system: SNB-75 CNS
SR leukemia = test system: SR leukemia
SW-620 colon = test system: SW-620 colon
T-47D breast = test system: T-47D breast
TK-10 renal = test system: TK-10 renal
U251 CNS = test system: U251 CNS
UACC-257 melanoma = test system: UACC-257 melanoma
UACC-62 melanoma = test system: UACC-62 melanoma
UO-31 renal = test system: UO-31 renal

SMILES: COc1cc(-c2nc3cc(Cl)c(Cl)cc3[nH]2)ccc1OCC(=O)N=Nc1c(O)[nH]c2ccccc12
- GI50 (786-0 renal): 370 nM
- TGI (786-0 renal): 1540 nM
- GI50 (A498 renal): 1460 nM
- TGI (A498 renal): 3370 nM
- GI50 (A549 NSCLC): 1410 nM
- TGI (A549 NSCLC): 14100 nM
- GI50 (ACHN renal): 2110 nM
- TGI (ACHN renal): 13800 nM
- GI50 (BT-549 breast): 822 nM
- TGI (BT-549 breast): 2290 nM
- GI50 (CAKI-1 renal): 1450 nM
- TGI (CAKI-1 renal): 2940 nM
- GI50 (CCRF-CEM leukemia): 322 nM
- TGI (CCRF-CEM leukemia): 17500 nM
- GI50 (COLO 205 colon): 384 nM
- TGI (COLO 205 colon): 1500 nM
- GI50 (DU-145 prostate): 501 nM
- TGI (DU-145 prostate): 1900 nM
- GI50 (EKVX NSCLC): 2020 nM
- TGI (EKVX NSCLC): 21700 nM
- GI50 (HCC-2998 colon): 419 nM
- TGI (HCC-2998 colon): 1430 nM
- GI50 (HCT-116 colon): 445 nM
- TGI (HCT-116 colon): 1550 nM
- TGI (HCT-15 colon): > 56500 nM
- GI50 (HL-60(TB) leukemia): 392 nM
- TGI (HL-60(TB) leukemia): 2220 nM
- GI50 (HOP-62 NSCLC): 832 nM
- TGI (HOP-62 NSCLC): 2620 nM
- GI50 (HOP-92 NSCLC): 794 nM
- TGI (HOP-92 NSCLC): 2420 nM
- GI50 (HS 578T breast): 1210 nM
- TGI (HS 578T breast): 4050 nM
- GI50 (HT29 colon): 352 nM
- TGI (HT29 colon): 4720 nM
- GI50 (IGROV1 ovarian): 313 nM
- TGI (IGROV1 ovarian): 1010 nM
- GI50 (K-562 leukemia): 345 nM
- TGI (K-562 leukemia): > 31700 nM
- GI50 (KM12 colon): 1070 nM
- TGI (KM12 colon): 3190 nM
- GI50 (LOX IMVI melanoma): 192 nM
- TGI (LOX IMVI melanoma): 368 nM
- GI50 (M14 melanoma): 328 nM
- TGI (M14 melanoma): 1330 nM
- GI50 (MALME-3M melanoma): 226 nM
- TGI (MALME-3M melanoma): 683 nM
- GI50 (MCF7 breast): 201 nM
- TGI (MCF7 breast): 479 nM
- GI50 (MDA-MB-231 breast): 450 nM
- TGI (MDA-MB-231 breast): 1690 nM
- GI50 (MDA-MB-435): 389 nM
- TGI (MDA-MB-435): 1420 nM
- GI50 (NCI-H226 lung): 1040 nM
- TGI (NCI-H226 lung): 2670 nM
- GI50 (NCI-H23 lung): 287 nM
- TGI (NCI-H23 lung): 938 nM
- GI50 (NCI-H460 lung): 420 nM
- TGI (NCI-H460 lung): 1630 nM
- GI50 (NCI-H522 lung): 301 nM
- TGI (NCI-H522 lung): 2180 nM
- GI50 (NCI/ADR-RES ovarian): > 79900 nM
- TGI (NCI/ADR-RES ovarian): > 100000 nM
- GI50 (OVCAR-3 ovarian): 409 nM
- TGI (OVCAR-3 ovarian): 1430 nM
- GI50 (OVCAR-4 ovarian): 307 nM
- TGI (OVCAR-4 ovarian): 921 nM
- GI50 (OVCAR-5 ovarian): 840 nM
- TGI (OVCAR-5 ovarian): 2450 nM
- GI50 (OVCAR-8 ovarian): 327 nM
- TGI (OVCAR-8 ovarian): 1590 nM
- GI50 (PC-3 prostate): 533 nM
- TGI (PC-3 prostate): 2070 nM
- GI50 (RPMI-8226 leukemia): 645 nM
- TGI (RPMI-8226 leukemia): 3350 nM
- GI50 (RXF 393 renal): 678 nM
- TGI (RXF 393 renal): 2100 nM
- GI50 (SF-268 CNS): 566 nM
- TGI (SF-268 CNS): 3060 nM
- GI50 (SF-295 CNS): 1280 nM
- TGI (SF-295 CNS): 2710 nM
- GI50 (SF-539 CNS): 1080 nM
- TGI (SF-539 CNS): 2290 nM
- GI50 (SK-MEL-2 melanoma): 1330 nM
- TGI (SK-MEL-2 melanoma): 3270 nM
- GI50 (SK-MEL-28 melanoma): 1380 nM
- TGI (SK-MEL-28 melanoma): 2680 nM
- GI50 (SK-MEL-5 melanoma): 541 nM
- TGI (SK-MEL-5 melanoma): 1760 nM
- GI50 (SK-OV-3 ovarian): 1910 nM
- TGI (SK-OV-3 ovarian): 4390 nM
- GI50 (SN12C renal): 506 nM
- TGI (SN12C renal): 1800 nM
- GI50 (SNB-19 CNS): 657 nM
- TGI (SNB-19 CNS): 5350 nM
- GI50 (SNB-75 CNS): 1230 nM
- TGI (SNB-75 CNS): 2650 nM
- GI50 (SR leukemia): 301 nM
- TGI (SR leukemia): > 100000 nM
- GI50 (SW-620 colon): 355 nM
- TGI (SW-620 colon): 1430 nM
- GI50 (T-47D breast): 288 nM
- TGI (T-47D breast): 1140 nM
- GI50 (TK-10 renal): 2450 nM
- TGI (TK-10 renal): 6760 nM
- GI50 (U251 CNS): 244 nM
- TGI (U251 CNS): 681 nM
- GI50 (UACC-257 melanoma): 1320 nM
- TGI (UACC-257 melanoma): 3670 nM
- GI50 (UACC-62 melanoma): 1410 nM
- TGI (UACC-62 melanoma): 2750 nM
- GI50 (UO-31 renal): > 52600 nM
- TGI (UO-31 renal): > 100000 nM
